Values of other authors as cited in article PMC3145338 (Journal of the American Chemical Society, 2011).
Where two headings read alike, the source gives them in different places. Marks after values point to notes of the source that are not given here.

Settings: BCA; for Kd: read-out: Kd^surf
[1] = SAM ligand 2, χ = 0.05, ref [Mrskich, 1995]
[2] = SAM ligand 2, ref [Lahiri, 1999a]
[3] = SAM ligand 2, ref [Lahiri, 1999b]

Kd [1]: 260 nM
Kd [2]: 150 nM
Kd [3]: 560 nM
Substance: BCA: bovine carbonic anhydrase
koff^surf [1]: 5.4 ^e 10^−3 s^−1
kon^surf [1]: 1.9 ^e 10^4 M^−1 s^−1
ΔG°surf [1]: −9.0 ^e kcal mol^−1
koff^surf [2]: 5.3 ^e 10^−3 s^−1
kon^surf [2]: 3.5 ^e 10^4 M^−1 s^−1
ΔG°surf [2]: −9.3 ^e kcal mol^−1
koff^surf [3]: 5.4 ^e 10^−3 s^−1
kon^surf [3]: 0.9 ^e 10^4 M^−1 s^−1
ΔG°surf [3]: −8.5 ^e kcal mol^−1
koff^surf (mixed SAMs χ = 0.05, ref Mrksich et al. [10]): 0.0054 s⁻¹
